Assay results as given in patent US4940714A, “2-substituted carbonylimidazo[4,5-c]quinolines” (Shionogi & Co., Ltd., priority 1988, dated 1990).
pKi: −log10 of the molar value.

Assays:
Benzodiazepine Receptor = test: Test on Binding to Benzodiazepine Receptor (inhibition of specific binding of tritium-labeled diazepam); design: species or system male Wistar rats (cerebral cortex); conditions: 2 nM tritium-labeled diazepam, 0° C., 60 minutes, rat cerebral cortex receptor preparation
Method: Test on Binding to Benzodiazepine Receptor
This test was carried out modifying partially a method of Mohler & Okada, Science, 198, 849-851 (1977). Receptor preparation was provided from the cerebral cortex of male Wistar rats (11-13 weeks age). Inhibitory action of the test compound on the specific binding of tritium-labeled diazepam to the receptor was evaluated as follows: 2 nM tritium-labeled diazepam and an aqueous solution of the test compound in 5 or 6 different concentrations were incubated with the receptor preparation at 0° C. for 60 minutes. The 50% inhibitory concentration (IC50) was measured by the concentration-response curve. In addition, the inhibitory constant (Ki) of the test compound was calculated by dissociation constant (Kd) and concentration (L) of the tritium-labeled diazepam.

[1] = test system: Pentylenetetrazole-Induced Convulsion; test: Potentiation of Pentylenetetrazole-Induced Convulsion (inverse agonist activity); type: in vivo; conditions: Mus musculus; intravenous injection; pentylenetetrazole 90 mg/kg subcutaneous; 2-hour observation; male mice; probit method; read-out: ED50 (dose required to produce tonic convulsion and death in 50% of the animals)
Method: Potentiation of Pentylenetetrazole-Induced Convulsion
(§1) Inverse agonist activity was evaluated in this Experiment. Pentylenetetrazole was subscutaneously administered male mice (a group of 8-16 male mice was employed in each test) at a dose of 90 mg/kg immediately after intravenous injection of the test compound. The dose (ED50) required to produce tonic convulsion and death in 50% of the aminals during subsequent 2-hour observation period was calculated by the probit method.

[2] = test system: Pentylenetetrazole-Induced Convulsion; test: Antagonism of Pentylenetetrazole-Induced Convulsion (agonistic activity); type: in vivo; conditions: Mus musculus; intravenous injection; pentylenetetrazole 125 mg/kg subcutaneous; 2-hour observation; male mice; probit method; read-out: ED50 (dose required to prevent tonic convulsion and death in 50% of the animals)
Method: Anatagonism of Pentylenetetrazole-Induced Convulsion
as §1, with “Agonistic” for “Inverse agonist”, “125” for “90”, “prevent” for “produce”, “animals” for “aminals”

learning and memory [3] = conditions: M. Sarter et al., TINS 11, 13 (1988); cited from earlier work
learning and memory [4] = conditions: M. Sarter et al., TINS 11, 13 (1988); cited from earlier work; remark: listed apart in the source

| SMILES | pKi (Benzodiazepine Receptor) | further results |
| --- | --- | --- |
| O=C(c1nc2cnc3ccccc3c2[nH]1)C1CC1 [Ic-1, 2-Cyclopropylcarbonyl-1H-imidazo[4,5-c]quinoline] | 9.45 |  |
| CCC(=O)c1nc2cnc3ccccc3c2[nH]1 [Ic-4] | 9.39 |  |
| CCCC(=O)c1nc2cnc3ccccc3c2[nH]1 [Ic-6] | 9.36 | ED50 [1]: 1 mg/kg |
| CCCCCCC(=O)c1nc2cnc3ccccc3c2[nH]1 [Ic-9] | 8.21 | ED50 [2]: 3.21 mg/kg |
| CC(C)C(=O)c1nc2cnc3ccccc3c2[nH]1 [Ic-14] | 8.91 | ED50 [1]: 0.2 mg/kg |
| CCC(C)C(=O)c1nc2cnc3ccccc3c2[nH]1 (stereo not shown) [Ic-18] | 8.44 |  |
| O=C(c1nc2cnc3ccc(F)cc3c2[nH]1)C1CC1 [Ic-21] | 9.30 |  |
| COc1ccc2c(c1)ncc1nc(C(=O)C3CC3)[nH]c12 [Ic-22] | 8.72 | ED50 [1]: 0.15 mg/kg |
| C/C=C/C(=O)c1nc2cnc3ccccc3c2[nH]1 [Ic-27] | 7.88 | ED50 [2]: 2.47 mg/kg |
| CSCCC(=O)c1nc2cnc3ccccc3c2[nH]1 [Ic-31] | 8.82 |  |
| O=C(c1nc2cnc3ccccc3c2[nH]1)c1ccc(Cl)s1 [Ic-36, 2-[(5-Chlorothiophen-2-yl)carbonyl]-1H-imidazo[4,5-c]quinoline] |  | ED50 [2]: 0.46 mg/kg |
| O=C(c1nc2cnc3ccccc3c2[nH]1)c1ccccc1F [Ic-37] | 8.66 |  |
| O=C(c1cccc(F)c1)c1nc2cnc3ccccc3c2[nH]1 [Ic-38] |  | ED50 [2]: 1.12 mg/kg |
| O=C(c1ccc(Cl)cc1)c1nc2cnc3ccccc3c2[nH]1 [Ic-41] | 8.08 |  |
| CSc1ccc(C(=O)c2nc3cnc4ccccc4c3[nH]2)cc1 [Ic-45] | 8.49 | ED50 [2]: 0.88 mg/kg |
| O=C(c1cccnc1)c1nc2cnc3ccccc3c2[nH]1 [Ic-49] | 8.74 |  |
| O=C(c1nc2cnc3ccccc3c2[nH]1)c1cccs1 [Ic-50] | 9.09 |  |
| O=C(c1nc2cnc3ccccc3c2[nH]1)c1ccco1 [Ic-56] | 8.97 |  |
| Cc1cc(C(=O)c2nc3cnc4ccccc4c3[nH]2)no1 [Ic-60] | 9.43 | ED50 [1]: 0.71 mg/kg |
| CCOC(=O)c1nc2cnc3ccccc3c2[nH]1 [Ic-64, 2-Ethoxycarbonyl-1H-imidazo[4,5-c]quinoline] |  | ED50 [1]: 0.31 mg/kg |
| CCNC(=O)c1nc2cnc3ccccc3c2[nH]1 [Ic-67] |  | ED50 [1]: 0.35 mg/kg |
| O=C(c1ccccc1)c1nc2cnc3ccccc3c2[nH]1 [Id-2] |  | ED50 [2]: 1.06 mg/kg |
| CN1C(=O)CN=C(c2ccccc2)c2cc(Cl)ccc21 [diazepam] |  | performance (learning and memory) in humans (learning and memory [3]): impairs such performance |
| COC(=O)c1cc2c(cn1)[nH]c1ccccc12 [methyl β-carbonline-3-carboxylate] |  | performance in several animal models of learning and memory (learning and memory [4]): enhances the performance |
